Where only a bound is given, the exact number is not on record here.

A short description of series [1]: Compound cytotoxicity, XTT-based colorimetric assay. The conditions noted are these: human, uninfected MT2 cells, day 4, XTT. The class given is cell-based. An outline of the steps:
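Run under the antiviral-assay protocol but without virus. Viability was read on day 4 and CC50 values were derived from the readout.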
A general note: Formazan colour is commonly taken as a measure of viable cells.

Series [2] concerns recombinant NL4-3 virus (Renilla luciferase in nef) in MT-2 cells. Put plainly: whole plant or invertebrate. The class given is cell-based, HIV. The settings on record: Renilla, NL43, MT-2 cells infected for 4-5 days with recombinant NL4-3 Renilla luciferase virus; luciferase activity. In outline:
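MT-2 cells infected for 4-5 days with NL4-3 reporter virus (Renilla luciferase replacing part of nef, produced by transfection of 293T cells) in the presence of serial compound dilutions. Antiviral activity quantified by luciferase activity read with a live-cell substrate.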

What is called CC50 is the concentration at which the toxic effect on the cells reaches its halfway point. Low readings indicate greater toxicity to the cells, high ones lower toxicity to the cells. As a reminder, the EC50 is the midpoint of the concentration-response curve. For `C=CCN(C(=O)[C@H](Cc1cc(F)cc(F)c1)NS(=O)(=O)c1cccc(S(=O)(=O)N[C@@H](Cc2cc(F)cc(F)c2)C(=O)N(CC=C)c2ccc(OC)cc2)c1)c1ccc(OC)cc1` [Example 187], in series [1], the CC50 at 4 days is no less than 100000 nM. For the same compound, in series [2], the EC50 stood at 3780 nM.
Regarding `CN(C(=O)[C@H](Cc1cc(F)cc(F)c1)NC(=O)NS(=O)(=O)N[C@@H](Cc1cc(F)cc(F)c1)C(=O)N(C)c1ccc2c(cnn2C)c1)c1ccc2c(cnn2C)c1` [Example 185], in series [1], the CC50 at 4 days was determined as 96000 nM. Moreover, in series [2], the EC50 was 80 nM.
Taken in the same sequence, the figures for `COc1ccc(N(C)C(=O)[C@H](Cc2ccccc2)NC(=O)CC(=O)N[C@@H](Cc2ccccc2)C(=O)N(C)c2ccc(OC)cc2)cc1` [Example 3] were 70900 nM and 1940 nM.
For the compound `Cc1nc2cc(N(C)C(=O)[C@H](Cc3cc(F)cc(F)c3)NC(=O)NS(=O)(=O)N[C@@H](Cc3cc(F)cc(F)c3)C(=O)N(C)c3ccc4sc(C)nc4c3)ccc2s1` [Example 151], the CC50 at 4 days in series [1] was 33400 nM. For the same compound, the EC50 in series [2] turned out to be 190 nM.
For the compound `COc1ccc(N(C)C(=O)[C@H](Cc2cc(F)cc(F)c2)NC(=O)c2ccc(F)c(C(=O)N[C@@H](Cc3cc(F)cc(F)c3)C(=O)N(C)c3ccc(OC)nc3)c2)cn1` [Example 196], the CC50 at 4 days in series [1] was no less than 100000 nM. The EC50 in series [2] came out at 370 nM.
The matching figures for `Cc1ccc(N(C)C(=O)[C@H](Cc2cc(F)cc(F)c2)NC(=O)NS(=O)(=O)N[C@@H](Cc2cc(F)cc(F)c2)C(=O)N(C)c2ccc(C)nc2)cn1` [Example 172]: no less than 100000 nM and 580 nM.
The matching figures for `CN(C(=O)[C@H](Cc1cc(F)cc(F)c1)NC(=O)NS(=O)(=O)N[C@@H](Cc1cc(F)cc(F)c1)C(=O)N(C)c1ccc(Cl)cc1)c1ccc(Cl)cc1` [Example 165]: 30300 nM and 40 nM.
Consider `COc1ccc(N(C)C(=O)[C@H](Cc2ccccc2)NC(=O)c2cc(C(=O)N[C@@H](Cc3ccccc3)C(=O)N(C)c3ccc(OC)cc3)cc(C(C)(C)C)c2)cc1` [Example 103], for which, in series [1], the CC50 at 4 days is no less than 33300 nM. Also, the EC50 in series [2] was 150 nM.
Taken in the same sequence, the figures for `COc1ccc(N(C)C(=O)[C@H](Cc2ccccc2)NC(=O)C(C)n2c(=O)n(C(C)C(=O)N[C@@H](Cc3ccccc3)C(=O)N(C)c3ccc(OC)cc3)c3ccccc32)cc1` (single isomer, unassigned) [Example 131] were 6300 nM and 490 nM.
Taken in the same sequence, the figures for `C=CCN(C(=O)[C@H](Cc1cc(F)cc(F)c1)NC(=O)c1ccccc1S(=O)(=O)N[C@@H](Cc1cc(F)cc(F)c1)C(=O)N(CC=C)c1ccc(OC)cc1)c1ccc(OC)cc1` [Example 210] were no less than 100000 nM and 10100 nM.
Compound `COc1ccc(N(C)C(=O)[C@H](Cc2ccccc2)NC(=O)CCCCC(=O)N[C@@H](Cc2ccccc2)C(=O)N(C)c2ccc(OC)cc2)cc1` [Example 23] returned a CC50 at 4 days in series [1] of 26900 nM. Further, in series [2], the EC50 is 1160 nM.
The matching figures for `COc1ccc(N(C)C(=O)[C@H](Cc2ccccc2)NC(=O)c2ccccc2-c2ccccc2C(=O)N[C@@H](Cc2ccccc2)C(=O)N(C)c2ccc(OC)cc2)cc1` [Example 79]: no less than 100000 nM and 1400 nM.
Regarding `COc1ccc(N(C)C(=O)[C@H](Cc2ccccc2)NS(=O)(=O)CCCS(=O)(=O)N[C@@H](Cc2ccccc2)C(=O)N(C)c2ccc(OC)cc2)cc1` [Example 28], in series [1], the CC50 at 4 days is 30000 nM. The EC50 in series [2] is 1400 nM.
The matching figures for `Cc1nc2c(F)c(N(C)C(=O)[C@H](Cc3cc(F)cc(F)c3)NC(=O)NS(=O)(=O)N[C@@H](Cc3cc(F)cc(F)c3)C(=O)N(C)c3ccc4sc(C)nc4c3F)ccc2s1` [Example 239]: no less than 100000 nM and 860 nM.
Taken in the same sequence, the figures for `CN(C(=O)[C@H](Cc1ccccc1)Nc1ncc(-c2cnc(N[C@@H](Cc3ccccc3)C(=O)N(C)c3ccc4scnc4c3)nc2)cn1)c1ccc2scnc2c1` [Example 136] were no less than 100000 nM and 340 nM.

Values taken from patent US20180072997A1, “INHIBITORS OF HUMAN IMMUNODEFICIENCY VIRUS REPLICATION” (ViiV HEATHCARE UK (NO.5) LIMITED, priority 2015, published 2018).
